Experimental data as given in patent publication US6075057A, “Inhibition of carbohydrates metabolism by quinone compounds” (priority 1997, dated 2000).

Tests used:
[1] = molecular target: T1, α-L-fucosidase (EC 3.2.1.51) (Bos taurus, UniProt Q2KIM0); assay: Initial screening assay for enzyme inhibition, α-L-fucosidase; format: biochemical, bovine kidney; settings: α-L-fucosidase, 2% MeOH, read-out: % Enzyme activity relative to control
T1 construct: purchased Sigma; host or cells: bovine kidney
T1 sequence (Q2KIM0 23-468): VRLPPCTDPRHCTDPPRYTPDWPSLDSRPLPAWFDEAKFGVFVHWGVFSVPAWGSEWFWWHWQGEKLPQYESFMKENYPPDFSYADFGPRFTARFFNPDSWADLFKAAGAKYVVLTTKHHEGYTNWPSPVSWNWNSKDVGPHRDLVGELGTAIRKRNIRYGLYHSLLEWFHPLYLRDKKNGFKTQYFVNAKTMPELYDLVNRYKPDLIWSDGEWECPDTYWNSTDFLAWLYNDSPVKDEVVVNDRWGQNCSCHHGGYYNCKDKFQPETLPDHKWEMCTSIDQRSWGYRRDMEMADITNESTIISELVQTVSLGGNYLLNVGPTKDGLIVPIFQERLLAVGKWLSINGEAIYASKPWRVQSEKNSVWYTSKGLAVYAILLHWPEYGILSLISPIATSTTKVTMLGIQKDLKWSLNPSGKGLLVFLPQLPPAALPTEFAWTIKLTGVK
Protocol: (§1) Optically pure enantiomers of avarol were synthetically prepared. A survey of potential inhibitory activity by avarol against twelve glycosidases was performed according to general procedures^15 (see experimental section). The enzymes tested and their biological sources are listed in Table 1 along with any pertinent references found for a given enzyme. In order to determine a working range for enzyme and substrate concentrations in which the rate of product formation was linear and steady-state kinetics were applicable, initial rate studies with varying substrate concentrations were performed in the absence of inhibitor. The Michaelis constants (Km 's) and Vmax values for these enzymes were determined from these plots using standard graphical analysis procedures as described in ref. 17 and are summarized in Table 2.
(§2) Enzymatic Assays. Piperazine-N,N'-bix-(2-ethanesulfonic acid)(PIPES) buffer, enzymes, and substrates were purchased from Sigma and used as received. Buffer solutions and enzymes (desiccated) were stored at 4° C. p-Nitrophenyl glycoside substrates were stored desiccated at -20° C. Enzyme inhibition assays and initial rate studies were carried out with the appropriate p-nitrophenyl glycoside substrates following the general procedure of Kajimoto et al., J. Am. Chem. Soc. 113:6187 (1991) with the exception that amyloglucosidase (EC 3.2,1.3, Asp. niger) was assayed following the method of Saul et al., Arch. Biochem. Biophys. 221:593 (1983). Assays were performed in a Perkin-Elmer Lambda Array 3840 Spectrophotometer using the built-in drive method (resolution=0.25, average=8) in a quartz cuvette (1 cm pathlength). Background absorption spectra were acquired using millipore filtered water as medium. Steady-state kinetics were maintained by adjusting the amount of enzyme used in each assay so that less than 10% of the substrate was converted to product for the duration of the reaction. Reactions were monitored at 400 nm (the absorbance of the p-nitrophenol product, ε=3204.5 M^-1 cm^-1) for a given amount of time and the initial rates were calculated and expressed as μmols p-nitrophenol formed per unit enzyme per second. Absportion readings for control reactions were corrected for the small baseline absorbance at time zero. Small discrepancies between time zero absorbance readings in a given inhibition assay and a time zero reading in a control assay were used to correct the overall absorbance change calculated in the inhibition assay. […]
(§3) Typical assay: A 1.5-mL quartz cuvette was charged with 940 μL of PIPES-NaOAc buffer solution (pH 6.56), 20 μL of inhibitor solution, and 20 μL of enzyme solution. […] The reaction was monitored at 400 nm for 1 min and the absorbance change was used to calculate the initial hydrolysis rate. […]

[2] = tested on: β-glucosidase (EC 3.2.1.21); assay: Initial screening assay for enzyme inhibition, β-glucosidase; format: biochemical, almonds; settings: 20 μM inhibitor, 2% MeOH
Protocol: as §1
(§4) Enzymatic Assays. […] Reactions were monitored at 400 nm (the absorbance of the p-nitrophenol product, ε=3204.5 M^-1 cm^-1) for a given amount of time and the initial rates were calculated and expressed as μmols p-nitrophenol formed per unit enzyme per second. Absportion readings for control reactions were corrected for the small baseline absorbance at time zero. Small discrepancies between time zero absorbance readings in a given inhibition assay and a time zero reading in a control assay were used to correct the overall absorbance change calculated in the inhibition assay. […]

[3] = molecular target: T2, β-galactosidase (EC 3.2.1.23, grade XI) (Aspergillus oryzae, UniProt Q2UCU3); assay: Initial screening assay for enzyme inhibition, β-galactosidase (Asp. oryzae); format: biochemical; settings: 2% MeOH, read-out: % Enzyme activity relative to control
T2 construct: purchased Sigma; host or cells: Aspergillus oryzae
Protocol: as §1, §2, §3

[4] = tested on: amyloglucosidase (EC 3.2.1.3); assay: Initial screening assay for enzyme inhibition, amyloglucosidase; format: biochemical, Aspergillus niger; settings: amyloglucosidase, 2% MeOH
Protocol: as §1
(§5) Enzymatic Assays. Piperazine-N,N'-bix-(2-ethanesulfonic acid)(PIPES) buffer, enzymes, and substrates were purchased from Sigma and used as received. Buffer solutions and enzymes (desiccated) were stored at 4° C. p-Nitrophenyl glycoside substrates were stored desiccated at -20° C. Enzyme inhibition assays and initial rate studies were carried out with the appropriate p-nitrophenyl glycoside substrates following the general procedure of Kajimoto et al., J. Am. Chem. Soc. 113:6187 (1991) with the exception that amyloglucosidase (EC 3.2,1.3, Asp. niger) was assayed following the method of Saul et al., Arch. Biochem. Biophys. 221:593 (1983). Assays were performed in a Perkin-Elmer Lambda Array 3840 Spectrophotometer using the built-in drive method (resolution=0.25, average=8) in a quartz cuvette (1 cm pathlength). Background absorption spectra were acquired using millipore filtered water as medium. Steady-state kinetics were maintained by adjusting the amount of enzyme used in each assay so that less than 10% of the substrate was converted to product for the duration of the reaction. Reactions were monitored at 400 nm (the absorbance of the p-nitrophenol product, ε=3204.5 M^-1 cm^-1) for a given amount of time and the initial rates were calculated and expressed as μmols p-nitrophenol formed per unit enzyme per second. Absportion readings for control reactions were corrected for the small baseline absorbance at time zero. Small discrepancies between time zero absorbance readings in a given inhibition assay and a time zero reading in a control assay were used to correct the overall absorbance change calculated in the inhibition assay. Inhibitors were dissolved in uv-grade absolute methanol.
(§6) Typical assay: A 1.5-mL quartz cuvette was charged with 940 μL of PIPES-NaOAc buffer solution (pH 6.56), 20 μL of inhibitor solution, and 20 μL of enzyme solution. The result was mixed well and then equilibrated at 37° C. for two minutes. 20 μL of the appropriate p-nitrophenyl glycoside solution was then added to initiate the reaction with rapid mixing. The reaction was monitored at 400 nm for 1 min and the absorbance change was used to calculate the initial hydrolysis rate. Lineweaver-Burk plots were constructed by repeating this procedure with varying substrate and inhibitor concentrations.

[5] = molecular target: T3, α-D-mannosidase (jack bean) (Canavalia ensiformis, UniProt C0HJB3); assay: IC50 determination against α-D-mannosidase; format: biochemical; settings: hot substrate solutions
T3 construct: purchased Sigma; host or cells: jack beans
Protocol: Enzymatic assays with a α-D-mannosidase (jack bean) were complicated by the higher Km of the enzyme (2.04 mM) requiring higher substrate concentrations and the relative insolubility of the .rho.-nitrophenyl mannoside substrate in aqueous media. The assay had to be performed using hot solutions of the substrate which were pipetted with some expected difficulty. Nonetheless, IC50 values of >40 μM and ~10 μM were obtained for the (+)- and (-)-enantiomers of avarol respectively.
as §4, with “Assays. Piperazine-N,N'-bix-(2-ethanesulfonic acid)(PIPES) buffer, enzymes, and substrates were purchased from Sigma and used as received. Buffer solutions and enzymes (desiccated) were stored at 4° C. p-Nitrophenyl glycoside substrates were stored desiccated at -20° C.” for “Assays.”

[6] = molecular target: T4, α-D-glucosidase (brewer's yeast) (Saccharomyces cerevisiae, UniProt P53341); assay: IC50 determination against α-D-glucosidase; format: biochemical
T4 construct: purchased Sigma; host or cells: brewer's yeast
Protocol: as §2, with “Background absorption spectra were acquired using millipore filtered water as medium. Steady-state kinetics were maintained by adjusting the amount of enzyme used in each assay so that less than 10% of the substrate was converted to product for the duration of the reaction.” left out

[7] = tested on: β-mannosidase (EC 3.2.1.25); assay: Initial screening assay for enzyme inhibition, β-mannosidase; format: biochemical, snail; settings: 2% MeOH
Protocol: as §1, §2, §3

[8] = molecular target: T5, α-glucosidase (brewer's yeast) (Saccharomyces cerevisiae, UniProt P53341); assay: Lineweaver-Burk analysis of inhibition of α-glucosidase; format: biochemical; settings: replot of Lineweaver-Burk slopes, linear extrapolation; pH 6.56, 37° C.
T5 construct: purchased Sigma; host or cells: brewer's yeast
Description: (§7) Initial screening assays with the enantiomeric avarols indicated significant activity by these compounds against only two of the twelve enzymes studies. […] This can occur when the two species compete for the same site or nearby sites on the enzyme. The equilibria that describe competitive inhibition are shown below. [drawing 3]
The equilibria describing this phenomenon are shown below. [drawing 4] The α factor represents the amount by which KS changes when I binds to the enzyme. The overall equilibrium constant for the formation of ESI remains the same regardless of which path was taken in its formation. Since the ES and ESI complexes are equally efficient in producing product, Vmax remains unchanged and Km is increased in the presence of inhibitor.
as §4

[9] = molecular target: T6, α-glucosidase (EC 3.2.1.20, type IV) (Saccharomyces cerevisiae, UniProt P53341); assay: Initial screening assay for enzyme inhibition, α-glucosidase; format: biochemical, brewer's yeast; settings: for remaining activity at 10 µM: α-glucosidase, 10 μM inhibitor, 2% MeOH, read-out: % Enzyme activity relative to control
T6 construct: purchased Sigma; host or cells: brewer's yeast
Protocol: as §1, §7, §5, §6

[10] = tested on: β-N-acetylglucosaminidase (EC 3.2.1.30); assay: Initial screening assay for enzyme inhibition, β-N-acetylglucosaminidase; format: biochemical, bovine kidney; settings: 2% MeOH
Protocol: as §1, §2, §3

[11] = molecular target: T7, β-xylosidase (EC 3.2.1.37) (Aspergillus niger, UniProt O00089); assay: Initial screening assay for enzyme inhibition, β-xylosidase; format: biochemical; settings: 2% MeOH, read-out: % Enzyme activity relative to control
T7 construct: purchased Sigma; host or cells: Aspergillus niger
Protocol: as §1, §2, §3

T6 sequence (P53341 whole entry): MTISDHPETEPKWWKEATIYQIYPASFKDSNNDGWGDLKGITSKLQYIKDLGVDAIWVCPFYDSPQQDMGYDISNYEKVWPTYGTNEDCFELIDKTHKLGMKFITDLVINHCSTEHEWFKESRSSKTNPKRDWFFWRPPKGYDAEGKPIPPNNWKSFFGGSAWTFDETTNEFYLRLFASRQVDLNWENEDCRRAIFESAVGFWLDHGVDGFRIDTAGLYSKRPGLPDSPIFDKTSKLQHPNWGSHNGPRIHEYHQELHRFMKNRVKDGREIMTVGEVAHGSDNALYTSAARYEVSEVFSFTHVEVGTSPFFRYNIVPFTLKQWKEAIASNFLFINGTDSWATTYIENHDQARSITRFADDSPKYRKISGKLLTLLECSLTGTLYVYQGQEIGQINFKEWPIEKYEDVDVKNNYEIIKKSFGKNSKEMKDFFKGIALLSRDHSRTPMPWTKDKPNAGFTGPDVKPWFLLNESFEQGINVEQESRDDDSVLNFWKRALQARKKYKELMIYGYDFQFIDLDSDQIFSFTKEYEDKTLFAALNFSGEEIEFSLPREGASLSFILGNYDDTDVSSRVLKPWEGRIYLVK
T3 sequence (C0HJB3 1-562 limits assumed): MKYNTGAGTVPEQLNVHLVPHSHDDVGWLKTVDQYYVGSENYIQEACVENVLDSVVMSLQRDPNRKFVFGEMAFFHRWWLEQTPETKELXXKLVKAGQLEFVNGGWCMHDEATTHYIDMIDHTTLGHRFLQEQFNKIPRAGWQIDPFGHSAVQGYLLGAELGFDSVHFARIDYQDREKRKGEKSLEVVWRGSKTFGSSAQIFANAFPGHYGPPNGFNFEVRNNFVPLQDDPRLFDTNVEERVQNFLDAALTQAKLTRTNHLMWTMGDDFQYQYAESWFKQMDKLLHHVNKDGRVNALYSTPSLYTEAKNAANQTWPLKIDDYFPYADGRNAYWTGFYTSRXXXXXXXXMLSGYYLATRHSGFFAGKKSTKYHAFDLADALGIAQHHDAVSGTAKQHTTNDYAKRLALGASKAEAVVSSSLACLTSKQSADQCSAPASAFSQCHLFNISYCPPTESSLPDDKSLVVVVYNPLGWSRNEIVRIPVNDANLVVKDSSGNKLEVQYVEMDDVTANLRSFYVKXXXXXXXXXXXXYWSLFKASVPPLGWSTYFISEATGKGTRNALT
T3 sequence (C0HJB3 563-981 limits assumed): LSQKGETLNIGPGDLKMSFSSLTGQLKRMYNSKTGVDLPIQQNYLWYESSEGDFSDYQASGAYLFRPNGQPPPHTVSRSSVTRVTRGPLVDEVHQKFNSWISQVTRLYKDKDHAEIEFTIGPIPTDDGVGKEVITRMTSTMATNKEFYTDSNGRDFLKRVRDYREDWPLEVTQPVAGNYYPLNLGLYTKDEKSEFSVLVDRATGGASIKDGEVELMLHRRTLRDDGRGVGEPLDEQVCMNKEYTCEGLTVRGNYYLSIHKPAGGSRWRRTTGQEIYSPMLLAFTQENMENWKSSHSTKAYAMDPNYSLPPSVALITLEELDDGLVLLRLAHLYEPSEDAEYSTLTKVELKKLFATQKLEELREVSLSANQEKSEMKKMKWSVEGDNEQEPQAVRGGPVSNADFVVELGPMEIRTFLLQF
T4 sequence (P53341 whole entry): as the sequence (P53341 whole entry) above
T5 sequence (P53341 whole entry): as above
T7 sequence (O00089 27-804): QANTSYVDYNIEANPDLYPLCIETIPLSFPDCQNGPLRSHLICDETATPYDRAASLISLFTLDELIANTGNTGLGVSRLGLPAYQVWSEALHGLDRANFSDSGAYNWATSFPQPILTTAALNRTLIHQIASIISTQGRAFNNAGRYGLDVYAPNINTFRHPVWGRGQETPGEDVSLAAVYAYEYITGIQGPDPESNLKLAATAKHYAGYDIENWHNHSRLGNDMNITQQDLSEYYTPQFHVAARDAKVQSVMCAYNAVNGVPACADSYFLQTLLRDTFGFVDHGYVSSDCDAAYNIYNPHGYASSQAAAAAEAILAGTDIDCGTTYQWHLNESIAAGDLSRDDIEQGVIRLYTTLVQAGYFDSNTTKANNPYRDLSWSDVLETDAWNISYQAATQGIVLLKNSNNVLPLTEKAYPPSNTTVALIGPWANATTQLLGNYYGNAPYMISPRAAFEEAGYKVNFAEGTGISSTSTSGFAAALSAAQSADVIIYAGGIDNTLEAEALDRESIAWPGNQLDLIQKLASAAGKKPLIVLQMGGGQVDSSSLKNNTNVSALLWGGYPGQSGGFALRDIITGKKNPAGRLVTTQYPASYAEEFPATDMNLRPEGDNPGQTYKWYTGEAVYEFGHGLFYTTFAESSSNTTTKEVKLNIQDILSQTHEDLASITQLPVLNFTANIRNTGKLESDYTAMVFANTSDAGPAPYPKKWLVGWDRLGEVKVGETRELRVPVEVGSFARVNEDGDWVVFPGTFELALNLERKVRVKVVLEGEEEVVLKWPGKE
T2 sequence (Q2UCU3 19-1005): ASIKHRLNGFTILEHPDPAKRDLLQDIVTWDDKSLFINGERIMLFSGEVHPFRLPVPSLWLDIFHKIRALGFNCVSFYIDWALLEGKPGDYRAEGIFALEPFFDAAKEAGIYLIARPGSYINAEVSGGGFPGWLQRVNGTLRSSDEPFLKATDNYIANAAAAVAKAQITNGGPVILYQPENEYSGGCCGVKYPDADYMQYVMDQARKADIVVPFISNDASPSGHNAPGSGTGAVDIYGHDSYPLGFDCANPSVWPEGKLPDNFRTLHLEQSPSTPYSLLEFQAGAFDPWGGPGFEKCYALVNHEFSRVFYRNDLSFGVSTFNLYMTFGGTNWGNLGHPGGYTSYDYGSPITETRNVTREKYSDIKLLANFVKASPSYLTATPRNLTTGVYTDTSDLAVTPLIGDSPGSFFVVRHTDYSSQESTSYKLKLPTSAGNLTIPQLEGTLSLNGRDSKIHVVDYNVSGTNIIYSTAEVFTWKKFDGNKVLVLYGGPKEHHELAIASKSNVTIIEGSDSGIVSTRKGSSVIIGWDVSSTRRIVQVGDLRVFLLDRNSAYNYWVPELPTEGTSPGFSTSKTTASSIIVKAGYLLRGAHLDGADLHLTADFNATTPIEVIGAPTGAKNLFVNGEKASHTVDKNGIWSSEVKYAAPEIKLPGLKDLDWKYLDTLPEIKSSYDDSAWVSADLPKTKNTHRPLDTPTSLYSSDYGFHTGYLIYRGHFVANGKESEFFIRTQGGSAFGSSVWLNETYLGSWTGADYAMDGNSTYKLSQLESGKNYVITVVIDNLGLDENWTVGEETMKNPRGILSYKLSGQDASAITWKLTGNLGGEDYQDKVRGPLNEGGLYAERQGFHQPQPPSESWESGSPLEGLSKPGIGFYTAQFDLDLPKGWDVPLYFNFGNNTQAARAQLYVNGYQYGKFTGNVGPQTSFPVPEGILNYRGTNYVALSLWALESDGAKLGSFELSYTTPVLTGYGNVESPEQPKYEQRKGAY

Compound | remaining activity at 40 µM ([1]; 40 μM inhibitor) [%] | % Enzyme activity relative to control [2] [%] | remaining activity at 40 µM ([3]; 40 μM inhibitor) [%] | % Enzyme activity relative to control ([4]; 40 μM inhibitor) [%] | IC50 [5] [µM] | IC50 [6] [µM] | % Enzyme activity relative to control ([7]; 40 μM inhibitor) [%] | Ki [8] [µM] | remaining activity at 10 µM [9] [%] | % Enzyme activity relative to control ([10]; 20 μM inhibitor) [%] | remaining activity at 40 µM ([11]; 40 μM inhibitor) [%] | remaining activity at 20 µM ([1]; 20 μM inhibitor) [%] | remaining activity at 20 µM ([3]; 20 μM inhibitor) [%] | % Enzyme activity relative to control ([4]; 20 μM inhibitor) [%] | % Enzyme activity relative to control ([7]; 20 μM inhibitor) [%] | activity versus naturally-occurring enantiomer, α-glucosidase (in words) ([9]; versus (+)-avarol) | % Enzyme activity relative to control ([10]; 10 μM inhibitor) [%] | remaining activity at 20 µM ([11]; 20 μM inhibitor) [%]
CC1=CCC[C@H]2[C@](C)(Cc3cc(O)ccc3O)[C@@H](C)CC[C@]12C [(+)-avarol, (+)-Avarol] | 101 | 102 | 100 | 113 | > 40 | > 20 | 106 | 25 | 63 | 102 | 100 | – | – | – | – | – | – | –
CC1=CCC[C@@H]2[C@@](C)(Cc3cc(O)ccc3O)[C@H](C)CC[C@@]12C [(-)-avarol] | – | 96 | – | – | ~10 | 7.6 | – | 9.5 | 43 | – | – | 108 | 99 | 94 | 101 | significantly more active than the naturally-occurring enantiomer | 89 | 91
